The record followed here is article doi:10.1101/866475v1, “α1A-adrenoceptor inverse agonists and agonists modulate receptor signalling through a conformational selection mechanism” (biorxiv, 2019).

In experiment [1] the target is T1, α1A-AR-A4 (and its variants α1A-AR-A4 (L312F), α1A-AR-A4-active) (Homo sapiens, UniProt P35348, C14S/T15I/L36I/I65V/N67Y/L80M/F86Y/G127A/G143A/W151F/E171V/F312L/N322K/P327L/S329Y).
T1 construct: gene ADRA1A; thermostabilised, C-terminus truncated at Ser351 plus A and His10
T1 sequence (P35348 2-351 C14S/T15I/L36I/I65V/N67Y/L80M/F86Y/G127A/G143A/W151F/E171V/F312L/N322K/P327L/S329Y): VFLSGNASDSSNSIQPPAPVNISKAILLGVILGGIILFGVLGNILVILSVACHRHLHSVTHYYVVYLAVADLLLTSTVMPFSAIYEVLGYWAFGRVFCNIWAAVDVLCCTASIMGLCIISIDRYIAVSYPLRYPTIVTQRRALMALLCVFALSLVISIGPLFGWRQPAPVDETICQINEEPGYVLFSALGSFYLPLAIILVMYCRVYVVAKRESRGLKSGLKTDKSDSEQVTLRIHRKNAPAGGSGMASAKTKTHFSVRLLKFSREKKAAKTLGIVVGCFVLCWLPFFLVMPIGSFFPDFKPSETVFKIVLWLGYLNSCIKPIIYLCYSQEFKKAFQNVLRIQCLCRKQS
Put plainly: QAPB competition binding, purified immobilised receptor (KingFisher). Conditions: 10 nM QAPB, 20 mM HEPES pH 7.5, 100 mM NaCl, 0.02% DDM, 22 °C, 2 h.

The target in a further experiment is T2, WT α1A-AR (Homo sapiens, UniProt P35348).
T2 construct: gene ADRA1A; wild type, pcDNA3.1, expressed in COS-7 cells
T2 sequence (P35348 1-466): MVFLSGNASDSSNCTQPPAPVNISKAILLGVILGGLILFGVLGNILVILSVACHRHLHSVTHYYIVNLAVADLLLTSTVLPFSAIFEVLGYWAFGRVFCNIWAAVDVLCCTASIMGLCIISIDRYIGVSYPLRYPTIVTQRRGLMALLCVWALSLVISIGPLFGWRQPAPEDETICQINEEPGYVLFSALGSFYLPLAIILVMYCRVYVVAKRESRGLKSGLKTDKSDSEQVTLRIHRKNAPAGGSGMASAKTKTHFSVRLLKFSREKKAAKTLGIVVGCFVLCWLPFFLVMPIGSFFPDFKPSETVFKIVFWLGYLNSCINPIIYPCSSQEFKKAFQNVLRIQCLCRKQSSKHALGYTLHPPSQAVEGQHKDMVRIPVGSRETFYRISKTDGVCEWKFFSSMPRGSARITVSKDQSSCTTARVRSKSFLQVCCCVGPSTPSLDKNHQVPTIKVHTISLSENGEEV
The class given is cell-based. Conditions: inverse agonist; 100 nM.

Broadly, the Ki is a dissociation constant, usually derived from enzyme kinetics or from competition with a known ligand. Read a high Ki as weaker binding. Turning to `COc1cccc(OC)c1OCCNCC1COc2ccccc2O1` (stereo not drawn) [WB-4101], in experiment [1], the Ki was found to be 7.6 ± 3.4 nM. `COc1cc2nc(N3CCN(C(=O)c4ccco4)CC3)nc(N)c2cc1OC` [Prazosin]: the “NanoBiT Gq split-luciferase assay, COS-7” value on WT α1A-AR is “inverse agonism of prazosin, WB-4101, phentolamine and silodosin at WT α1A-AR-expressing COS-7 cells”. With `C[C@H](Cc1cc2c(c(C(N)=O)c1)N(CCCO)CC2)NCCOc1ccccc1OCC(F)(F)F` [Silodosin], the Ki in experiment [1] is 8.4 ± 1.9 nM.
